The source of these data is patent US12186327B2, “Oral allopregnanolone compositions and methods of use” (Lipocine Inc., priority 2022, dated 2025).

The conditions of series [1]: 30 mg capsule, cited from earlier work.
A further series has as its target a1b2g2 GABAA receptor (Homo sapiens, UniProt P14867+P47870). Conditions: synaptic GABAA receptor; cited from earlier work.
The conditions of series [2]: once daily 30 mg capsule, 14 day treatment; cited from earlier work.
For series [3] the following is noted: in vivo; cited from earlier work.
Series [4] in a line: Allopregnanolone solubility in SBE-β-CD solution. In kind it is physicochemical. The conditions noted are these: for solubility: aqueous with cosolvent or surfactant or cyclodextrin. On the procedure:
The solubilized fraction of allopregnanolone began to decline, as observed by precipitation, when allopregnanolone concentration was above 8 mg/ml. The amount of allopregnanolone in the cyclodextrin solution can only be enabled by up to about 0.6% w/w loading amount of the composition fill. Moreover, high cyclodextrin amounts required to solubilize allopregnanolone also present safety concerns. In some aspects, the compositions and dosage forms of this invention can comprise higher allopregnanolone loading amounts (>5 mg/ml or 5 mg/g) than ones formulated in non-encapsulated SBE-β-CD or any cyclodextrin solution composition.

The conditions of series [5]: oral daily doses of 16-24 g for 14 days, human volunteers; cited from earlier work.

In brackets after ≈: the same amount, converted by molar mass. Like-named read-outs stand apart in the source and are kept apart here. Where only a bound is given, the exact number is not on record here.

a1b2g2 GABAA receptor, sequence (P14867 28-456): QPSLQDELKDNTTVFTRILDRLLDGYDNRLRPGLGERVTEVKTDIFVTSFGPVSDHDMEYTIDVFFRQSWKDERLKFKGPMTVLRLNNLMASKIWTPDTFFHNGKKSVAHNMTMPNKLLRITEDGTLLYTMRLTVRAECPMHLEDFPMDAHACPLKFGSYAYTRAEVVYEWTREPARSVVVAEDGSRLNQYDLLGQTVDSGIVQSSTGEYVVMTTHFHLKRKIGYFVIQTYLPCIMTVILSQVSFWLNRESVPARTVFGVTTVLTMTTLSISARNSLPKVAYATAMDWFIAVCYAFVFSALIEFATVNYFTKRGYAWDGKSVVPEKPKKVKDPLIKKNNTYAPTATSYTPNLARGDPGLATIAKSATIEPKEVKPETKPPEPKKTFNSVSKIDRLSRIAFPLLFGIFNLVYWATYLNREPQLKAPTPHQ
a1b2g2 GABAA receptor, sequence (P47870 25-512 limits assumed): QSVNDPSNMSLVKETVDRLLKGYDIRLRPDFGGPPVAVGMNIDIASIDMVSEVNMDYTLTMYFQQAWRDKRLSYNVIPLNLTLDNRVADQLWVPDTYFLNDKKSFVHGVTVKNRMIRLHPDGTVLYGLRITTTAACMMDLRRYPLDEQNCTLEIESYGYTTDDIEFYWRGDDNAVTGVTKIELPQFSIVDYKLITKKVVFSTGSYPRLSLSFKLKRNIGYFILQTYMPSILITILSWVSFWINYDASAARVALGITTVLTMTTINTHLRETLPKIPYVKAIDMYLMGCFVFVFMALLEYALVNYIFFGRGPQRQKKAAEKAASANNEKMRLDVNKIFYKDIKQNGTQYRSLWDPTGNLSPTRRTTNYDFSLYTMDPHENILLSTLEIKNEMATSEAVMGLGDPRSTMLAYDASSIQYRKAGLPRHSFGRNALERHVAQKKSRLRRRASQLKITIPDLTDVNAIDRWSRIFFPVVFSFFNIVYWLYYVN
a1b2g2 GABAA receptor, sequence (P18507 40-475 partner): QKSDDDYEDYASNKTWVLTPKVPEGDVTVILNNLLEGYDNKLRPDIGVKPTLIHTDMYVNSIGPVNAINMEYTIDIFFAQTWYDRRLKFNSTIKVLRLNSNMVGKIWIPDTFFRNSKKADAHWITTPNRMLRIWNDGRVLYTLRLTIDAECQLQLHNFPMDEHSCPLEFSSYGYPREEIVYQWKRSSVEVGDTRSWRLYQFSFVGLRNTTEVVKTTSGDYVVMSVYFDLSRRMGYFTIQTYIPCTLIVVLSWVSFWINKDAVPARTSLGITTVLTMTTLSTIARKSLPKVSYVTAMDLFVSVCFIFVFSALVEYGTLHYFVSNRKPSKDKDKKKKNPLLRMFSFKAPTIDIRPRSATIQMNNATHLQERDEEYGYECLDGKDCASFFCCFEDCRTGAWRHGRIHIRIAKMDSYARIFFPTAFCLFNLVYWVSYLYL

Consider `C[C@@]1(O)CC[C@H]2[C@H](CC[C@@H]3[C@@H]2CC[C@]2(C)[C@@H](C(=O)Cn4cc(C#N)cn4)CC[C@@H]32)C1` [ZURANOLONE], for which the Cmax result in series [1] (single dose with a standard fat meal) is “about 64 ng/ml”; in series [1] (single dose, fasted condition), “about 23 ng/ml”. Moreover, the “less potent than allopregnanolone, based on a1b2g2 Qpatch EC50” value on a1b2g2 GABAA receptor is given as “about 33%”. In addition, the “efficacy in postpartum depression” value in series [2] is reported as “acceptable efficacy”.
With `CC(=O)[C@H]1CC[C@H]2[C@@H]3CC[C@H]4C[C@H](O)CC[C@]4(C)[C@H]3CC[C@]12C` [allopregnanolone, 3α-hydroxy-5α-pregnan-20-one], the oral bioavailability entry in series [3] is recorded as “low”. Further, the solubility in series [4] (cyclodextrin (SBE-β-CD) solution, read-out: allopregnanolone concentration above which the solubilized fraction declined (precipitation)) is over 8000 µg/mL; in series [4] (in 24% w/v non-encapsulated SBE-β-CD solution, read-out: allopregnanolone solubility), about 6000 µg/mL (≈ 18.8 mM). The “loading amount of the composition fill enabled in cyclodextrin solution” value in series [4] (cyclodextrin solution) is given as “up to 0.6 % w/w”.
Consider hydroxy propyl-β-CD, for which the digestive problems entry in series [5] was “increased incidence of soft stools and diarrhea”.
